Article PMC8047011, “Enantiomers of 2-methylglutamate and 2-methylglutamine selectively impact mouse brain metabolism and behavior” (Scientific Reports, 2021)

Key:
[1] = system: C57Bl/6 mice; assay: Morris water maze; assay type: in vivo, mouse; conditions: chronic 10 mg/kg/day IP, weeks 2 and 3 of testing
Description: See Supplementary Methods for details.
Elevated Plus Maze: The maze was made of acrylonitrile butadiene styrene (ABS) plastic and had two open arms and two close arms that were 30 cm long and 5 cm wide. The center area where the open and close arms meet was 5 cm x 5 cm. The open arms had 2 mm lips at the edges, and the closed arms had 15 cm opaque walls. The maze was elevated 50 cm and surrounded by privacy blinds during the test. The maze was illuminated to 7 lux using red light throughout the test. Each mouse was released in the center of the maze and given 5 min to explore the maze. Duration and frequency in each zone of the maze were recorded using Ethovision (Noldus Information Technology, Wageningen, the Netherlands) tracking software.
Y Maze Spontaneous Alternation: The Y maze is made of plastic with 3 arms in a "Y" shape.
The arms are labelled as Arm A, B, and C; Arm A is 20.32 cm (L) x 5 cm (W) 12.7 cm (H), Arm B and C are 15.24 cm (L) x 5 cm (W), and 12.7 cm (H). The test is based on the willingness of rodents to explore a novel environment and designed to measure spontaneous alternations in rodents. Each mouse was placed in the center of the maze facing Arm B. The first entry was excluded from data analysis because the animals were led to the initial arm entry by the experimenter. Using an overhead camera, the number of arm entries and alternations were recorded for 5 minutes. An arm entry is when all four paws enter into a new arm of the maze.
The apparatus was cleaned with 1% Virkon. Parameters recorded were % alternation and the total number of entries into arms. The Y maze test was conducted after two weeks of exposure […]
A ping pong ball was erected from the submerged platform and the mice were given two trials of Visible Platform Training to ensure they lacked gross sensorimotor deficit and visual impairment. The escape latency, distance moved, duration in zones, and velocity of the animals were recorded using Ethovision XT (Noldus Information Technology, Wageningen, Netherlands). […]

[2] = system: primary murine cerebral astrocytes; assay: Astrocyte transport and metabolism of 2MeGlu; assay type: cell-based, mouse; conditions: 1 mM substrate, 2 h, 37 °C
Description: Primary astrocytes from C57Bl/6 mouse brain were cultured in complete astrocyte growth medium at 37 °C at 5% CO2 on 96 well plates. Cells were exposed to 1 mM compound in 100 μL medium for 2 h at 37 °C. Supernatants were collected, centrifuged at 2500g for 10 min at 4 °C. 10 μL aliquots were diluted with 190 μL 60% ACN containing 10 μM Glu-d5 and Gln-d5. Cells were quickly washed with 250 μL cold PBS twice and suspended in 200 μL of 60% ACN containing 10 μM Glu-d5 and Gln-d5. All samples were shaken at 1000 rpm for 5 min and then stored at – 80 °C.

[3] = molecular target: T1, GABAA α2β3γ2 (Homo sapiens, UniProt P28472+P47869); assay: FLIPR functional receptor assay, GABAA α2β3γ2; assay type: cell-based; conditions: agonist mode; top test concentration 1 mM
T1 construct: host or cells: HEK 293
T1 sequence (P47869 29-451): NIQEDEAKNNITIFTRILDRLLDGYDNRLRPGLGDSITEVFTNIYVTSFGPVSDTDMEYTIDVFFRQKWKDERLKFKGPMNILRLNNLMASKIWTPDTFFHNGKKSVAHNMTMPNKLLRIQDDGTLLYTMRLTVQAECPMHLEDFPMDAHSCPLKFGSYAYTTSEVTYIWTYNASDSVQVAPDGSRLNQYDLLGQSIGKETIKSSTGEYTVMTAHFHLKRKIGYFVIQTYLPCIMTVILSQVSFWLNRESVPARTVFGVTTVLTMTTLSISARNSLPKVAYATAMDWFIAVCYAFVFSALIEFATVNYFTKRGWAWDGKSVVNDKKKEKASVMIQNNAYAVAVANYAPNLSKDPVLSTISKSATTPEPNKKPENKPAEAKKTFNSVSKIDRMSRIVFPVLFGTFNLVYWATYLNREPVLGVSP
T1 sequence (P28472 26-473): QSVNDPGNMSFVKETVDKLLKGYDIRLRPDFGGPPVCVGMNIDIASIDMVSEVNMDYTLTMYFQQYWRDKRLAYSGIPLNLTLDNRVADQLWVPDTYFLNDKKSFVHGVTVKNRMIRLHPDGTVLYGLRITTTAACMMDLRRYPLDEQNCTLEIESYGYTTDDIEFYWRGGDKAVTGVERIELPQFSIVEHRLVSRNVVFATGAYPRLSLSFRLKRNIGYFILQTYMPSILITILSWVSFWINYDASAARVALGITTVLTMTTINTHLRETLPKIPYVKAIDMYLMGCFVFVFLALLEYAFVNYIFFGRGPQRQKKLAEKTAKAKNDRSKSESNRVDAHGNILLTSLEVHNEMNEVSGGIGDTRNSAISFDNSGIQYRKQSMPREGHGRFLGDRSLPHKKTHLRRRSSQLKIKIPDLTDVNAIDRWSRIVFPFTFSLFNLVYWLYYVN
T1 sequence (P18507 40-475 partner): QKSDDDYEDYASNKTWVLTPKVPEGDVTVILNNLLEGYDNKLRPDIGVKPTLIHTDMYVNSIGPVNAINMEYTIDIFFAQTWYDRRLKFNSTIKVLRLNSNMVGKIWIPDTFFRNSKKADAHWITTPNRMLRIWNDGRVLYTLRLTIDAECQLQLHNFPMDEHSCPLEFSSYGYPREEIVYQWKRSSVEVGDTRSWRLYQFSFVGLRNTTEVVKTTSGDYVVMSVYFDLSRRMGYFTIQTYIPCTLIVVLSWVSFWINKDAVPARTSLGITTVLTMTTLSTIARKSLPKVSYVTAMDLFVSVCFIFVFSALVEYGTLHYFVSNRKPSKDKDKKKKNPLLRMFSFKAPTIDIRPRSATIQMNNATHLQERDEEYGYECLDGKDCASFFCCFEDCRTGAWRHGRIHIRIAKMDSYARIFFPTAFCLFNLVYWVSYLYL
Description: Receptor functional & binding assays
Functional assays of all GABAA, NMDA (GluN2A–GluN2D) and AMPA (GluA2) receptor subunits were performed by SB Drug Discovery as a part of their CNS discovery panel using FLIPR technology. Briefly, receptor-expressing HEK 293 cell lines were incubated in a red membrane potential dye in HEPES:HBSS pH 7.4 buffer and the fluorescence (λex: 488, λex: 510–570) was monitored over time as the test compounds and/or reference compounds were added to the solution. In agonist assay, only test compounds were added. In positive allosteric modulator assay, cells were preincubated with test compounds and then low concentration (approximately EC20) of an appropriate agonist was added. In antagonist assay, cells were preincubated with test compounds and then high concentration (approximately EC80) of an appropriate agonist was added. For GABAA assays, GABA was used as the agonist, picrotoxin was used as the reference antagonist and allopregnanolone was used as the reference positive allosteric modulator (PAM). For NMDA assays, a mixture of glutamate, glycine and CaCl2 was used as the agonist, MK801 was the reference antagonist and pregnenolone sulfate or GNE 9278 were used as reference PAMs. […] All compounds were tested at 7 concentration points in triplicate and EC50/IC50 was determined where applicable. […]

[4] = system: mouse cerebral synaptosomes; assay: Potassium-induced neurotransmitter release assay; assay type: cell-based; conditions: preincubated with 100 μM substrate 15 min 37 °C; high-potassium KRP buffer
Description: To each tube, 2.5 μL of a test compound solution (final concentration 100 μM) in Buffer KRP or Buffer KRP alone were added. Samples were incubated for 15 min at 37 °C, briefly chilled on ice, and then immediately centrifuged and washed twice with Buffer KRP. The resulting pellets were then resuspended in either Buffer KRP (500 μL) or Buffer K-KRP (500 μL). Samples were immediately centrifuged or incubated for 5, 10 or 15 min at 37 °C, then centrifuged and washed with Buffer KRP. Resulting pellets were resuspended in 400 μL of 60% ACN containing 2.5 μM Glu-d5 and 2.5 μM Gln-d5 as internal standards.

CC(N)(CCC(N)=O)C(=O)O (racemic) [rac-2MeGln, rac-2-methylglutamine]
Learning in the Morris water maze [1]: no significant effect of treatment

C[C@@](N)(CCC(=O)O)C(=O)O [(R)-2MeGlu, (R)-2-methylglutamic acid]
Astrocyte uptake and conversion to 2MeGln [2]: not detected within astrocytes in significant amounts, and no conversion to 2MeGln was detected | Learning in the Morris water maze [1]: no significant effect of treatment | EC50 [3]: 622 µM | Potassium-induced release from preloaded synaptosomes [4]: not significantly altered by depolarization

C[C@](N)(CCC(=O)O)C(=O)O [(S)-2MeGlu, (S)-2-methylglutamic acid]
Astrocyte uptake and conversion to 2MeGln [2]: transported into astrocytes and then converted into 2MeGln | Learning in the Morris water maze [1]: no significant effect of treatment | EC50 [3]: 342 µM | Potassium-induced release from preloaded synaptosomes [4]: released upon depolarization in a manner very similar to endogenous Glu
